Reference: US20220144850A1, “INDOLO HEPTAMYL OXIME ANALOGUE AS PARP INHIBITOR” (Chia Tai Tianqing Pharmaceutical Group Co., Ltd., priority 2019, published 2022)

What was measured:
PARP1 = biological target: T1, PARP1 (Homo sapiens, UniProt P09874); experiment: PARP-1 enzymatic experiment (HT Universal Chemiluminescent PARP Assay kit); format: biochemical; conditions: chemiluminescence
T1 construct: purchased TREVIGEN
Method: Experimental Example 1: PARP-1 Enzymatic Experiment
Experimental materials: test compounds; HT Universal Chemiluminescent PARP Assay kit (purchased from TREVIGEN); PBS (purchased from Wisent); Triton X-100 (purchased from Macklin); Envision multi-marker analyzer (PerkinElmer).
(I) Preparation of Reagents:
• 1. Washing solution: Triton X-100 was added to 1-fold PBS, and the final concentration of Triton X-100 was 0.1%. • 2. 1-fold PARP buffer: the 20-fold PARP buffer in the kit was subjected to 20-fold dilution with water to prepare a 1-fold PARP buffer. This buffer was used to prepare the compound, enzyme solution and substrate solution. • 3. 1-fold Strep-Diluent solution: the 10-fold Strep-diluent in the kit was subjected to 10-fold dilution with water to prepare a 1-fold Strep-diluent solution.
(II) Preparation of Test Compounds:
Test compounds were serially 5-fold diluted to the 8th concentration with a multichannel pipette, i.e. from 200 μM to 2.56 nM, with the DMSO concentration being 100%. 2 μL of each of the inhibitors at various concentration gradients was added to a compound intermediate plate, and 38 μL of the 1-fold PARP buffer was then added; the two were mixed well for use, and the DMSO concentration was 5%.
(III) Experimental Method:
• a) The 1-fold PARP buffer was added to a test plate at 50 μL per well and incubated at 25° C. for 30 min. • b) After the incubation was completed, the liquid in the test plate was discarded, and each of the compounds at various concentration gradients was pipetted from the compound intermediate plate and added into the test plate at 10 μL per well. A duplicate-well experiment was performed. • c) The test plate was added with the enzyme solution (0.5 IU) at 15 μL per well. The compound and enzyme were incubated together at 25° C. for 10 min. • d) After the incubation was completed, 25 μL of the 1-fold PARP Cocktail (comprising 2.5 μL of 10-fold PARP Cocktail, 2.5 μL of 10-fold Activated DNA and 20 μL of 1-fold PARP buffer) was added to each well of the test plate. The test plate was incubated at 25° C. for 1 h. The final concentration of the compound was 2 μM to 0.0256 nM, and the DMSO concentration was […]. • e) After the incubation was completed, the test plate was washed twice with 200 μL of washing solution per well and then washed twice with 200 μL of PBS per well. • f) Strep-HRP in the kit was subjected to 500-fold dilution with the 1-fold Strep-Diluent solution, added to the test plate at 50 μL per well, and then incubated at 25° C. for 1 h. • g) After the incubation was completed, the test plate was washed twice with 200 μL of washing solution per well and then washed twice with 200 μL of PBS per well.
PeroxyGlow A and B in the kit were mixed at ratio of 1:1, and the mixed solution was added to the test plate at 100 μL per well. Chemiluminescence was immediately read using a PerkinElmer Envision multi-marker analyzer with an integration time of 0.5 s.
Data analysis: the original data was converted to inhibition using the equation (sample−Min)/(Max−Min)×[…], and the IC50 value was then curve filled using four parameters (obtained from the “log(inhibitor) vs. response-variable slope” model in GraphPad Prism).

[1] = tested on: BRCA1-mutated MDA-MB-436 cells; experiment: Anti-proliferation experiment on MDA-MB-436 CTG cells; format: cell-based, human; conditions: 7 days incubation, CellTiter-Glo
Method: Experimental Example 2: Anti-Proliferation Experiment on MDA-MB-436 CTG Cells
Experimental materials: test compounds; RPMI-1640 medium; fetal bovine serum; penicillin/streptomycin antibiotic; MDA-MB-436 cell line; Envision multi-marker analyzer (PerkinElmer).
MDA-MB-436 cells were seeded in a white 96-well plate by adding 80 μL of cell suspension (containing 3000 MDA-MB-436 cells) to each well. The cell plate was incubated in a CO2 incubator overnight.
(§1) Test compounds were serially 5-fold diluted to the 8th concentration with a multichannel pipette, i.e. from 2 mM to 26 nM, and a duplicate well experiment was performed. 78 μL of medium was added to a intermediate plate, 2 μL of each of serially diluted compounds was transferred to corresponding wells of the intermediate plate, and after mixing, the mixture was transferred to the cell plate at 20 μL per well. The cell plate was incubated in a CO2 incubator for 7 days. Another cell plate was provided for reading signal values on the day of compound addition and these signal values were used as Max values in data analysis. Promega CellTiter-Glo was added to this cell plate at 25 μL per well and the luminescence signals were stabilized by incubation for 10 min at room temperature. Readings were taken using a PerkinElmer Envision multi-marker analyzer.
(§2) Promega CellTiter-Glo was added to the cell plate at 25 μL per well and the luminescence signals were stabilized by incubation for 10 min at room temperature. Readings were taken using a PerkinElmer Envision multi-marker analyzer.
2. Data analysis: the original data was converted to inhibition using the equation (sample−Min)/(Max−Min)×100%, and the IC50 value was then curve fitted using four parameters (obtained from the “log(inhibitor) vs. response-variable slope” model in GraphPad Prism). Table 2 provides the inhibitory activity of the compounds disclosed herein against MDA-MB-436 cell proliferation.

[2] = tested on: BRCA-wild type MDA-MB-231 cells; experiment: Anti-proliferation experiment on MDA-MB-231 CTG cells; format: cell-based; conditions: Homo sapiens, MDA-MB-231, 72 h; 3 days incubation, CellTiter-Glo
Method: Experimental Example 3: Anti-Proliferation Experiment on MDA-MB-231 CTG Cells
Experimental materials: test compounds; R DMEM medium; fetal bovine serum; penicillin/streptomycin antibiotic; MDA-MB-231 cell line; Envision multi-label analyzer.
MDA-MB-231 cells were seeded in a white 96-well plate by adding 80 μL of cell suspension (containing 5000 MDA-MB-231 cells) to each well. The cell plate was incubated in a CO2 incubator overnight.
as §1, with “Eight concentration points were set for each compound, test compounds” for “Test compounds”, “serially 3-fold” for “serially 5-fold”, “to 920” for “to 26”, “for 3” for “for 7”
as §2
Data analysis: the original data was converted to inhibition using the equation (sample−Min)/(Max−Min)×100%, and the IC50 value was then curve fitted using four parameters (obtained from the “log(inhibitor) vs. response-variable slope” model in GraphPad Prism). Table 1 provides the inhibitory activity of the compounds disclosed herein against MDA-MB-231 cell proliferation.

[3] = Single-dose pharmacokinetic study in mice; format: in vivo; conditions: male C57BL/6 mice, IV: 1 mg/kg PO: 5 mg/kg
Excerpt: Experimental Example 8: Single-Dose Pharmacokinetic Study in Mice
Experimental objective: to evaluate the pharmacokinetic behavior by using male C57BL/6 mice as test animals and determining the drug concentrations of the compounds in the plasma, liver and cerebrospinal fluid after single-dose administration.
Experimental method: healthy adult male C57BL/6 mice were selected for intragastric administration. A candidate compound was mixed with an appropriate amount of 10% DMSO/90% (20% hydroxypropyl-β-cyclodextrin), vortexed and sonicated to prepare a 0.5 mg/mL clear solution for later use. After the mice were administered intravenously at 1 mg/kg and orally at 5 mg/kg, whole blood was collected at certain time points, and plasma was separated, and liver and cerebrospinal fluid were collected. After pretreatment of the samples, the drug concentration was measured by LC-MS/MS, and pharmacokinetic parameters were calculated using Phoenix WinNonlin software.

[4] = Homo sapiens, MDA-MB-436, 168 h

T1 sequence (P09874 whole entry): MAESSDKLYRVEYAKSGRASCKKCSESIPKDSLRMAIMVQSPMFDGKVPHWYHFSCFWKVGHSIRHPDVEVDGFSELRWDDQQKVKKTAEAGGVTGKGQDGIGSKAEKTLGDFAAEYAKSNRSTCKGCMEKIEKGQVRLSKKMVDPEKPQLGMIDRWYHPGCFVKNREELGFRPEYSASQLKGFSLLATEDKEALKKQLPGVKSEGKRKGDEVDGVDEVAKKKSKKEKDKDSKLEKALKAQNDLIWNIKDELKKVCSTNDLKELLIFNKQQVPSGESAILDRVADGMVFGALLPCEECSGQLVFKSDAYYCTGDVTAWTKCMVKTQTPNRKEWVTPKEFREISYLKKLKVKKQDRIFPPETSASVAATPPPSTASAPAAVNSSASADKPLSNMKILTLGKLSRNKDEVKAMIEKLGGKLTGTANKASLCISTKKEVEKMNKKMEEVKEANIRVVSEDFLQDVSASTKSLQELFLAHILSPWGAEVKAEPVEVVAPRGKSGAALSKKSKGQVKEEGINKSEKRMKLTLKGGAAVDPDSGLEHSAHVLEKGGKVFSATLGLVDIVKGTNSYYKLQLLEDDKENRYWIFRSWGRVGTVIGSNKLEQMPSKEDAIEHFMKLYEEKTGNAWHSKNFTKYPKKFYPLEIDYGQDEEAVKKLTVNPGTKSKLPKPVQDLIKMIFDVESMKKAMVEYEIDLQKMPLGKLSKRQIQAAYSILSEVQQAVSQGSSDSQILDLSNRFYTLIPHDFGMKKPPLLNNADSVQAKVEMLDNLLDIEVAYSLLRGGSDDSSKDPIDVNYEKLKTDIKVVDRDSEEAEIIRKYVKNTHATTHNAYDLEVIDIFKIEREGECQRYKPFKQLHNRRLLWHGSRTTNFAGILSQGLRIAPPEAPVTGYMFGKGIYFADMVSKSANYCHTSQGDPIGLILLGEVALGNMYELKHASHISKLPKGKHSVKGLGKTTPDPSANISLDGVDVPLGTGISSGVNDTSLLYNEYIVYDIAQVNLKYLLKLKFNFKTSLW

Row | IC50 (PARP1) [nM] | IC50 [1, 4] [nM] | IC50 [1] [nM] | SMILES | further results
1 | 2.7 | 20.8 |  | [2H]C1(c2ccc(-c3[nH]c4cccc5c4c3CONC5=O)cc2)CCCN1 (centres unmarked) [Example 8_A] | 
2 | 3.4 |  | 50 | O=C1NOCc2c(-c3ccc(C4CCCN4)c(F)c3)[nH]c3cc(F)cc1c23 (single isomer, unassigned) [Example 28_B] | 
3 | 2.8 | 44.6 |  | O=C1NOCc2c(-c3ccc(C4CCCN4)nc3)[nH]c3cccc1c23 (centres unmarked) [Example 16_B] | 
4 | 3.5 | 24 |  | O=C1NOCc2c(-c3ccc(C4(F)CCCNC4)c(F)c3)[nH]c3cccc1c23 (centres unmarked) [Example 19_B] | 
5 |  | 27 |  | O=C1NOCc2c(-c3ccc(C4CCCNC4)cc3F)[nH]c3cc(F)cc1c23 (racemic) [Example 10] | 
6 |  | 134 |  | O=C1NOCc2c(-c3ccc(C4=CNCC4)c(F)c3)[nH]c3cccc1c23 [Example 18] | 
7 | 2.5 |  | 4.4 | O=C1NOCc2c(-c3ccc(C4CCCN4)cc3)[nH]c3cc(F)cc1c23 (single isomer, unassigned) [Example 24_B] | 
8 | 3.7 | 30.9 |  | [2H]C1([2H])ONC(=O)c2cccc3[nH]c(-c4ccc(C5(C)CCCN5)c(F)c4)c1c23 (centres unmarked) [Example 23_A] | 
9 | 4.9 |  | 125 | O=C1NOCc2c(-c3ccc(C4CCCN4)cc3F)[nH]c3cc(F)cc1c23 (single isomer, unassigned) [Example 22_A] | 
10 | 5.6 | 69.8 |  | [2H]C1([2H])ONC(=O)c2cccc3[nH]c(-c4ccc(C5CCCN5)c(F)c4)c1c23 (centres unmarked) [Example 21_B] | 
11 | 4.2 |  | 61.6 | O=C1NOCc2c(-c3ccc(C4CCCN4)cc3F)[nH]c3cc(F)cc1c23 (single isomer, unassigned) [Example 22_B] | IC50 [2]: > 10000 nM
12 | 7.1 | 89.6 |  | [2H]C1(c2ccc(-c3[nH]c4cccc5c4c3CONC5=O)cc2F)CCCN1 (centres unmarked) [Example 15_B] | 
13 | 3.8 | 61.6 |  | O=C1NOCc2c(-c3ccc(C4CCCN4CCO)c(F)c3)[nH]c3cccc1c23 (centres unmarked) [Example 20_B] | 
14 | 3.6 |  | 29.3 | CC1(c2ccc(-c3[nH]c4cc(F)cc5c4c3CONC5=O)cc2F)CCCN1 (single isomer, unassigned) [Example 26_B] | 
15 |  |  |  | CNCc1ccc(-c2[nH]c3cc(F)cc4c3c2CCNC4=O)cc1 [Rucaparib, reference compound] | Maximum concentration [3]: 24.8 nM; bioavailability ([3]; mouse, plasma): 14.6%; clearance ([3]; mouse, plasma): 99.9 mL/min/kg; Vd ([3]; mouse, plasma, read-out: Apparent volume of distribution): 13.1 L/kg
16 | 2.9 | 73 |  | O=C1NOCc2c(-c3ccc(C4CCCN4)c(F)c3)[nH]c3cc(F)cc1c23 (single isomer, unassigned) [Example 28_A] | 

Row | SMILES | IC50 (PARP1) [nM] | IC50 [1, 4] [nM] | IC50 [1] [nM] | further results
17 | CC1(c2ccc(-c3[nH]c4cc(F)cc5c4c3CONC5=O)cc2)CCCN1 (centres unmarked) [Example 25_B] | 2.8 |  | 20.7 | 
